Measured values reported in ChEMBL document CHEMBL5107989, “Design, synthesis and activity evaluation of isopropylsulfonyl-substituted 2,4- diarylaminopyrimidine derivatives as FAK inhibitors for the potential treatment of pancreatic cancer” (Eur J Med Chem, 2022).

Columns and labels:
NCI-H1975 = assay: cells; conditions: Homo sapiens, NCI-H1975, 72 h
Description: Antiproliferative activity against gefitinib-resistant human NCI-H1975 cells assessed as inhibition of cell growth incubated for 72 hrs by CCK-8 assay

Raji = assay: cells; conditions: Homo sapiens, 72 h
Description: Antiproliferative activity against human Raji cells assessed as inhibition of cell growth incubated for 72 hrs by CCK-8 assay

KM3/BTZ = assay: cells; conditions: Homo sapiens, 72 h
Description: Antiproliferative activity against bortezomib- resistant human KM3/BTZ cells assessed as inhibition of cell growth incubated for 72 hrs by CCK-8 assay

ASPC1 = assay: cells; conditions: Homo sapiens, ASPC1, 72 h
Description: Antiproliferative activity against human ASPC1 cells harboring KRAS,TP53,CDKN2A and DPC4/SMAD4 mutations assessed as inhibition of cell growth incubated for 72 hrs by CCK-8 assay

MIA PaCa-2 = assay: cells; conditions: Homo sapiens, MIA PaCa-2, 72 h
Description: Antiproliferative activity against human MIA PaCa-2 cells harboring KRAS,TP53,CDKN2A and DPC4/SMAD4 mutations assessed as inhibition of cell growth incubated for 72 hrs by CCK-8 assay

[1] = Cytotoxicity against human L02 cells assessed as inhibition of cell growth incubated for 72 hrs by CCK-8 assay; type: toxicity, cell-based
Focal adhesion kinase 1 = Focal adhesion kinase 1 (Homo sapiens, UniProt Q05397); assay: Inhibition of recombinant human FAK (393 to 698 residues) using poly (4:1 Glu, Tyr) peptide as substrate incubated for 60 mins in presence of ATP by ADP-Glo reagent based luminescent assay
Sequence of Focal adhesion kinase 1 (Q05397 whole entry, the tested form may be a part): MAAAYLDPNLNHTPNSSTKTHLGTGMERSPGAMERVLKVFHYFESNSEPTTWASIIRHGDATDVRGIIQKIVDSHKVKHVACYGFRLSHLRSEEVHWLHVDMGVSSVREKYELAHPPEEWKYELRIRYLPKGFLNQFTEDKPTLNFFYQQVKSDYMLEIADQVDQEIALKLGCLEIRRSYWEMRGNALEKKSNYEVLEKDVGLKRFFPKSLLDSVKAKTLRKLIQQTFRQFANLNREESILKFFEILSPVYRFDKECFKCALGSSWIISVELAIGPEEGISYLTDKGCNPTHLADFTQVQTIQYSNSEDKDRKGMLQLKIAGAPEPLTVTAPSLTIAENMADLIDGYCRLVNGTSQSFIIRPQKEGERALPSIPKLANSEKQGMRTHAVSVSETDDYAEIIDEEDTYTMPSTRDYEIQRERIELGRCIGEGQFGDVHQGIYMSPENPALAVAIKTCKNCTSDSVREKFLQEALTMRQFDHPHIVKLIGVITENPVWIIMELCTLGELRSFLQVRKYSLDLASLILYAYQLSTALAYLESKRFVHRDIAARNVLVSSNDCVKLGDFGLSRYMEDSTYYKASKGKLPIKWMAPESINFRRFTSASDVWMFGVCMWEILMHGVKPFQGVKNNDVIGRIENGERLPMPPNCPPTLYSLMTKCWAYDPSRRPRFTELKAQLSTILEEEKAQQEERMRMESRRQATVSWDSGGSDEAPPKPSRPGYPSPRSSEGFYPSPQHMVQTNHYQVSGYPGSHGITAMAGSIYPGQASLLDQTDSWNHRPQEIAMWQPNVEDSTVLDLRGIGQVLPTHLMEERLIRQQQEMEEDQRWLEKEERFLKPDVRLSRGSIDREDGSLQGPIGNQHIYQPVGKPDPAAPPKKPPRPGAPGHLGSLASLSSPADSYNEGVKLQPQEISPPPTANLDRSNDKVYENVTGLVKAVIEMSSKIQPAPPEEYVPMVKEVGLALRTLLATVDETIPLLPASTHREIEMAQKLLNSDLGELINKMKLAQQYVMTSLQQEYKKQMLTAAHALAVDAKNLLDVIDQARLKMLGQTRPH

| IC50 (NCI-H1975) | IC50 (Raji) | IC50 (KM3/BTZ) | IC50 (ASPC1) | IC50 (MIA PaCa-2) | IC50 (Focal adhesion kinase 1) | SMILES | IC50 at 72 h [1] |
| --- | --- | --- | --- | --- | --- | --- | --- |
| 2710 nM | 1480 nM | 3680 nM | 916 nM | 2120 nM | – | CC(C)S(=O)(=O)c1ccccc1Nc1nc(Nc2ccc(N3CCC(C(=O)O)CC3)cc2)ncc1Cl | 1510 nM |
| 2920 nM | 1320 nM | 2320 nM | 989 nM | 5270 nM | – | CCOC(=O)C1CCN(CC(=O)Nc2ccc(Nc3ncc(Cl)c(Nc4ccccc4S(=O)(=O)C(C)C)n3)cc2)CC1 | 1220 nM |
| > 10000 nM | > 10000 nM | > 10000 nM | 3180 nM | 1230 nM | – | CC(C)S(=O)(=O)c1ccccc1Nc1nc(Nc2ccc(NC(=O)CN3CCC(C(=O)NCCCCCC(=O)NO)CC3)cc2)ncc1Cl | 5050 nM |
| 9640 nM | > 10000 nM | > 10000 nM | 451 nM | 12.6 nM | – | CCOC(=O)C1CCN(c2ccc(Nc3ncc(Cl)c(Nc4ccccc4S(=O)(=O)C(C)C)n3)cc2)CC1 | 980 nM |
| 7510 nM | 3250 nM | 2160 nM | 3680 nM | 5050 nM | – | CC(C)S(=O)(=O)c1ccccc1Nc1nc(Nc2ccc(NC(=O)CN3CCC(C(=O)O)CC3)cc2)ncc1Cl | 2320 nM |
| 2950 nM | 1670 nM | > 10000 nM | 2980 nM | 4710 nM | 0.315 nM | CCOP(=O)(Cc1ccc(Nc2ncc(Cl)c(Nc3ccccc3S(=O)(=O)C(C)C)n2)cc1)OCC | 7930 nM |
| 6290 nM | 1220 nM | 159 nM | 139 nM | 235 nM | – | CC(C)S(=O)(=O)c1ccccc1Nc1nc(Nc2ccc(CN3CCC(CO)CC3)cc2)ncc1Cl | 192 nM |
| 7420 nM | > 10000 nM | 9770 nM | 1920 nM | 622 nM | – | COC(=O)CCCCCNC(=O)C1CCN(c2ccc(Nc3ncc(Cl)c(Nc4ccccc4S(=O)(=O)C(C)C)n3)cc2)CC1 | 1980 nM |
| 347 nM | 3270 nM | 1610 nM | 259 nM | 714 nM | – | CC(C)S(=O)(=O)c1ccccc1Nc1nc(Nc2ccc(OCC(=O)N3CCOCC3)cc2)ncc1Cl | 368 nM |
| 7860 nM | > 10000 nM | 2890 nM | 6980 nM | 1230 nM | – | CC(C)S(=O)(=O)c1ccccc1Nc1nc(Nc2ccc(CN3CCC(C(=O)NCCCCCC(=O)NO)CC3)cc2)ncc1Cl | 2990 nM |
| 3510 nM | 2210 nM | 2490 nM | 735 nM | 452 nM | – | CC(C)S(=O)(=O)c1ccccc1Nc1nc(Nc2ccc(CN3CCSCC3)cc2)ncc1Cl | 1140 nM |
| 2810 nM | > 10000 nM | 1020 nM | 472 nM | 1130 nM | – | CC(C)S(=O)(=O)c1ccccc1Nc1nc(Nc2ccc(CN3CCC(C(=O)O)CC3)cc2)ncc1Cl | 1270 nM |
| 3820 nM | > 10000 nM | > 10000 nM | 5940 nM | 1230 nM | – | COC(=O)CCCCCNC(=O)C1CCN(CC(=O)Nc2ccc(Nc3ncc(Cl)c(Nc4ccccc4S(=O)(=O)C(C)C)n3)cc2)CC1 | 7010 nM |
| 494 nM | > 10000 nM | 497 nM | 288 nM | 459 nM | – | CC(C)S(=O)(=O)c1ccccc1Nc1nc(Nc2ccc(CN3CCC(C(=O)NCCO)CC3)cc2)ncc1Cl | 978 nM |
| 2880 nM | > 10000 nM | > 10000 nM | 3520 nM | 4760 nM | – | CC(C)S(=O)(=O)c1ccccc1Nc1nc(Nc2ccc(SCCCN3CCOCC3)cc2)ncc1Cl | 8650 nM |
| 2080 nM | 2960 nM | 262 nM | 295 nM | 7090 nM | – | CCOC(=O)C1CCN(Cc2ccc(Nc3ncc(Cl)c(Nc4ccccc4S(=O)(=O)C(C)C)n3)cc2)CC1 | 453 nM |
| > 10000 nM | > 10000 nM | 4390 nM | 4820 nM | 5230 nM | – | CNC(=O)c1ccccc1Nc1nc(Nc2ccc(N3CCOCC3)cc2OC)ncc1Cl | 5210 nM |
| 8200 nM | > 10000 nM | 2580 nM | 394 nM | 1900 nM | – | CCC(C)C(CO)NC(=O)C1CCN(Cc2ccc(Nc3ncc(Cl)c(Nc4ccccc4S(=O)(=O)C(C)C)n3)cc2)CC1 (stereo not given) | 1390 nM |
| 4140 nM | > 10000 nM | > 10000 nM | 2380 nM | 1170 nM | – | CC(C)S(=O)(=O)c1ccccc1Nc1nc(Nc2ccc(N3CCC(C(=O)NCCCCCC(=O)NO)CC3)cc2)ncc1Cl | 755 nM |
